The values below come from US20130029970A1 (priority 2009, published 2013).

The target of one assay is T1, human CB2 receptors (Homo sapiens, UniProt P34972).
T1 construct: (cDNA clone) CNR0200000
In words: cAMP assay in HEK-293 cells, hCB2 agonist. It is filed as cell-based. The method, boiled down: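 HEK-293 cells stably expressing human CB2, suspended at 1,500,000 cells/mL in HBSS with 10 mM HEPES and 0.1% fatty-acid-free BSA, exposed to test compound plus forskolin (90 uM in the 3× compound solution) for 30 min at 37° C.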
Background: Changes in cAMP serve as a functional read-out for many G protein-coupled receptors.

Assay [1] addresses T2, recombinant human cannabinoid receptor CB2 (Homo sapiens, UniProt P34972).
T2 construct: (cDNA clone) CNR0200000
In words: Cannabinoid receptor radioligand binding assay, [3H]-CP 55,940 displacement, hCB2. The gist of the method:
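Membranes from hCB2-transfected cells, prepared by 1000×g then 40,000×g centrifugation, resuspended in 20 mM HEPES pH 7.4, 5 mM MgCl2, 1 mM EDTA, 10% sucrose.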

In the next assay the target is T3, human CB1 receptors (Homo sapiens, UniProt P21554).
T3 construct: (cDNA clone) CNR01L000
T3 sequence (P21554 whole entry): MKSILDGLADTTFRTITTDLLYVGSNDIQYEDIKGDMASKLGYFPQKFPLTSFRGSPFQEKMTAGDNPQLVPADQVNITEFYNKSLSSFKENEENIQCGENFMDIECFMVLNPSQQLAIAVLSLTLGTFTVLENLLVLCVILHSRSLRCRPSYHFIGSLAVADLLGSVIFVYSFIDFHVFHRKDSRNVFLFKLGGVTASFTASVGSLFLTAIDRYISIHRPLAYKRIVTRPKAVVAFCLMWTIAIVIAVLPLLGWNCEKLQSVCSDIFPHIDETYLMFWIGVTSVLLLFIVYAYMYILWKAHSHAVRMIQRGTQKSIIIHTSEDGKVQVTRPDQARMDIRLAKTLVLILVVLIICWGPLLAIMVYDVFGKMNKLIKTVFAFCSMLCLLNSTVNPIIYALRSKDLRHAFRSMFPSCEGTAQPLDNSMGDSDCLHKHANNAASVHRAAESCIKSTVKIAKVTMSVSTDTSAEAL
In words: cAMP assay in HEK-293 cells, hCB1 agonist. It is filed as cell-based. The gist of the method: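 Stable hCB1 HEK-293 cells suspended in HBSS with 10 mM HEPES and 0.1% fatty acid-free BSA, incubated 30 min at 37° C. with compound plus forskolin (90 uM in the 3× compound solution). Lysed cAMP measured by enzyme-fragment kit; EC50 = 50% inhibition of forskolin-stimulated cAMP (forskolin maximum = 100%), sigmoidal fit.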

The next assay deals with T4, human CB2 (hCB2) (Homo sapiens, UniProt P34972).
T4 construct: (cDNA clone) CNR0200000
T4 sequence (P34972 whole entry): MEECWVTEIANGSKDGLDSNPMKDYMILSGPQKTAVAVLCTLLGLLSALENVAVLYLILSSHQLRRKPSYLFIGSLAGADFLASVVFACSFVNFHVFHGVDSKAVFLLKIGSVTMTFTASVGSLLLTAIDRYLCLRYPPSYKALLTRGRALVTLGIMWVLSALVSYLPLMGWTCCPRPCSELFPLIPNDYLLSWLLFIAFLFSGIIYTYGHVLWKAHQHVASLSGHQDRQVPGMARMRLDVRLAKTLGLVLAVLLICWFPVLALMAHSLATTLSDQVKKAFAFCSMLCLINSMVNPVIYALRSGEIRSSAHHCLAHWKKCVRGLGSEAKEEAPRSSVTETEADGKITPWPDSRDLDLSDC
In words: 35S GTPγS binding assay, hCB2 agonist. It counts as biochemical. The gist of the method:
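Membranes (5 μg) from cells transfected with hCB2 cDNA in pcDNA3.1+ incubated with SPA beads, 0.1 nM [35S]GTPγS and 20 uM GDP in 50 mM HEPES pH 7.4, 100 mM NaCl, 5 mM MgCl2, 0.001% saponin, ± test compound. Incubation 90 min at room temperature; bound label read by scintillation counting.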

[2] abbreviates: inhibition of forskolin-stimulated cAMP, HEK-293 cells, read-out: hCB1 EC50 (cAMP ag).
The mark [3] stands for this setting: inhibition of forskolin-stimulated cAMP, HEK-293 cells.

Molecules are shown by their SMILES. Where two headings read alike, the source gives them in different places. Bounds are passed on as bounds.

T2 sequence (P34972 whole entry): as above
T1 sequence (P34972 whole entry): as above

For orientation: EC50 means the concentration at which the effect is half-maximal. A word on the IC50: it is the concentration at which inhibition is half-maximal. For `COc1ccc(C(=O)c2cc3cc(C)n(CCN4CCOCC4)c3s2)cc1` [Compound 36, (4-methoxyphenyl)(5-methyl-6-(2-morpholinoethyl)-6H-thieno[2,3-b]pyrrol-2-yl)methanone], the results for the half-maximal effective concentration (EC50) at human CB2 receptors, on human CB1 receptors and at human CB2 (hCB2) were below 100 nM, 1000 to 10000 nM and below 100 nM, respectively. In addition, the half-maximal inhibitory concentration (IC50) in assay [1] was below 100 nM.

Consider `Cc1cc2cc(C(=O)c3cccc(Cl)c3Cl)sc2n1S(=O)(=O)N(C)C` [Compound 41, 2-(2,3-Dichlorobenzoyl)-N,N,5-trimethyl-6H-thieno[2,3-b]pyrrole-6-sulfonamide], for which the figures for the half-maximal effective concentration (EC50) at human CB2 receptors, on human CB1 receptors (setting [2]) and on human CB2 (hCB2) were below 100 nM, 1000 to 10000 nM and below 100 nM, respectively. The 50% inhibitory concentration (IC50) in assay [1] was below 100 nM.

As to `Cc1cc2cc(C(=O)c3ccccc3N)sc2n1CCN1CCOCC1` [Compound 48, (2-Aminophenyl)(5-methyl-6-(2-morpholinoethyl)-6H-thieno[2,3-b]pyrrol-2-yl)methanone], the results for the 50% effective concentration (EC50) on human CB2 receptors, on human CB1 receptors (setting [2]) and on human CB2 (hCB2) were below 100 nM, 1000 to 10000 nM and below 100 nM, respectively. For the same compound, in assay [1], the half-inhibitory concentration (IC50) was below 100 nM.

For `COCCn1c(C)cc2cc(C(=O)c3ccc(OC)cc3)sc21` [Compound 49, (6-(2-Methoxyethyl)-5-methyl-6H-thieno[2,3-b]pyrrol-2-yl)(4-methoxyphenyl)methanone], the EC50 at human CB2 receptors and at human CB2 (hCB2) was 100 to 1000 nM throughout. Besides, in assay [1], the half-inhibitory concentration (IC50) lay within 1000 to 10000 nM. In addition, the “hCB1 EC50 (cAMP ag, nM)” value on human CB1 receptors (setting [3]) is reported as “NS (NS means “Not Significant,” which means less than 30% agonist activity when compared to the positive control.)”.

Turning to `COc1ccc(C(=O)c2cc3cc(C)n(CCN4CCOC4=O)c3s2)cc1` [Compound 50, 3-(2-(2-(4-Methoxybenzoyl)-5-methyl-6H-thieno[2,3-b]pyrrol-6-yl)ethyl)oxazolidin-2-one], the concentration for a half-maximal effect (EC50) on human CB2 receptors is below 100 nM; at human CB2 (hCB2), 1000 to 10000 nM. For the same compound, the IC50 in assay [1] lay in the range of 1000 to 10000 nM. The “hCB1 EC50 (cAMP ag, nM)” value on human CB1 receptors (setting [3]) is given as “NS (NS means “Not Significant,” which means less than 30% agonist activity when compared to the positive control.)”.

As for `CCOc1ccc(C(=O)c2cc3cc(C)n(CCN4CCOCC4)c3s2)cc1` [Compound 55, (4-Ethoxyphenyl)(5-methyl-6-(2-morpholinoethyl)-6H-thieno[2,3-b]pyrrol-2-yl)methanone], the EC50 was below 100 nM at human CB2 receptors, 1000 to 10000 nM on human CB1 receptors (setting [2]) and below 100 nM on human CB2 (hCB2). The IC50 in assay [1] is 100 to 1000 nM.

`Cc1cc2cc(C(=O)c3ccc(N(C)C)cc3)sc2n1CCN1CCOCC1` [Compound 59, (4-(Dimethylamino)phenyl)(5-methyl-6-(2-morpholinoethyl)-6H-thieno[2,3-b]pyrrol-2-yl)methanone]: the 50% effective concentration (EC50) at human CB2 receptors and at human CB2 (hCB2) was 100 to 1000 nM each time. The IC50 in assay [1] lay within 1000 to 10000 nM. Also, on human CB1 receptors (setting [3]), the “hCB1 EC50 (cAMP ag, nM)” value is “NS (NS means “Not Significant,” which means less than 30% agonist activity when compared to the positive control.)”.

Turning to `Cc1cc2cc(C(=O)c3ccc(F)cc3Cl)sc2n1CCN1CCOCC1` [Compound 64, (2-Chloro-4-fluorophenyl)(5-methyl-6-(2-morpholinoethyl)-6H-thieno[2,3-b]pyrrol-2-yl)methanone], the EC50 at human CB2 receptors was below 100 nM; at human CB1 receptors (setting [2]), 100 to 1000 nM; at human CB2 (hCB2) it was below 100 nM. Also, in assay [1], the IC50 is below 100 nM.

Take `Cc1cc2cc(C(=O)c3ccc(OC(F)(F)F)cc3)sc2n1CCN1CCOCC1` [Compound 65, (5-Methyl-6-(2-morpholinoethyl)-6H-thieno[2,3-b]pyrrol-2-yl)(4-(trifluoromethoxy)phenyl)methanone]: the EC50 on human CB2 receptors and at human CB2 (hCB2) was 100 to 1000 nM throughout. The IC50 in assay [1] fell in the range of 100 to 1000 nM. In addition, the “hCB1 EC50 (cAMP ag, nM)” value at human CB1 receptors (setting [3]) is “NS (NS means “Not Significant,” which means less than 30% agonist activity when compared to the positive control.)”.

As to `COc1ccc(C(=O)c2cc3cc(C)n(CCN4CCOCC4)c3s2)c(F)c1` [Compound 68, (2-Fluoro-4-methoxyphenyl)(5-methyl-6-(2-morpholinoethyl)-6H-thieno[2,3-b]pyrrol-2-yl)methanone], the EC50 on human CB2 receptors is below 100 nM; at human CB1 receptors (setting [2]), 1000 to 10000 nM; at human CB2 (hCB2), below 100 nM. In addition, the half-maximal inhibitory concentration (IC50) in assay [1] was below 100 nM.

`COc1ccc(C(=O)c2cc3cc(C)n(CCNS(C)(=O)=O)c3s2)cc1` [Compound 71, N-(2-(2-(4-Methoxybenzoyl)-5-methyl-6H-thieno[2,3-b]pyrrol-6-yl)ethyl)methanesulfonamide]: the EC50 at human CB2 receptors and on human CB2 (hCB2) was 100 to 1000 nM each time. Also, the concentration for half-maximal inhibition (IC50) in assay [1] was in the range of 1000 to 10000 nM. At human CB1 receptors (setting [3]), the “hCB1 EC50 (cAMP ag, nM)” value was “NS (NS means “Not Significant,” which means less than 30% agonist activity when compared to the positive control.)”.

As to `CCOC(=O)CCn1c(C)cc2cc(C(=O)c3ccc(OC)cc3)sc21` [Compound 72, Ethyl 3-(2-(4-methoxybenzoyl)-5-methyl-6H-thieno[2,3-b]pyrrol-6-yl)propanoate], the EC50 on human CB2 receptors and on human CB2 (hCB2) was 100 to 1000 nM each time. Moreover, in assay [1], the IC50 fell in the range of 1000 to 10000 nM. In addition, the “hCB1 EC50 (cAMP ag, nM)” value at human CB1 receptors (setting [3]) was “NS (NS means “Not Significant,” which means less than 30% agonist activity when compared to the positive control.)”.

Turning to `COc1ccc(C(=O)c2cc3cc(C)n(CCCNC(=O)C(F)(F)F)c3s2)cc1` [Compound 76, 2,2,2-Trifluoro-N-(3-(2-(4-methoxybenzoyl)-5-methyl-6H-thieno[2,3-b]pyrrol-6-yl)propyl)acetamide], the EC50 at human CB2 receptors and on human CB2 (hCB2) was 100 to 1000 nM each time. In addition, in assay [1], the IC50 lay in the range of 100 to 1000 nM. Also, the “hCB1 EC50 (cAMP ag, nM)” value at human CB1 receptors (setting [3]) is on record as “NS (NS means “Not Significant,” which means less than 30% agonist activity when compared to the positive control.)”.

As to `COc1ccc(C(=O)c2cc3cc(C)n(CCC(C)(C)O)c3s2)cc1` [Compound 77, (6-(3-Hydroxy-3-methylbutyl)-5-methyl-6H-thieno[2,3-b]pyrrol-2-yl)(4-methoxyphenyl)methanone], the values for the EC50 on human CB2 receptors, at human CB1 receptors (setting [2]) and at human CB2 (hCB2) were 100 to 1000 nM, 1000 to 10000 nM and 100 to 1000 nM, respectively. The concentration for half-maximal inhibition (IC50) in assay [1] was in the range of 1000 to 10000 nM.

Take `Cc1ccc(C(=O)c2cc3cc(C)n(CCN4CCOCC4)c3s2)c(F)c1` [Compound 80, (2-Fluoro-4-methylphenyl)(5-methyl-6-(2-morpholinoethyl)-6H-thieno[2,3-b]pyrrol-2-yl)methanone]: the EC50 at human CB2 receptors and on human CB2 (hCB2) was below 100 nM each time. The IC50 in assay [1] was 100 to 1000 nM. In addition, the “hCB1 EC50 (cAMP ag, nM)” value on human CB1 receptors (setting [3]) is recorded as “NS (NS means “Not Significant,” which means less than 30% agonist activity when compared to the positive control.)”.

With `COc1ccc(C(=O)c2cc3cc(C)n(CCN4CCCC4)c3s2)cc1` [Compound 83, (4-Methoxyphenyl)(5-methyl-6-(2-(pyrrolidin-1-yl)ethyl)-6H-thieno[2,3-b]pyrrol-2-yl)methanone], the half-maximal effective concentration (EC50) at human CB2 receptors is below 100 nM; at human CB1 receptors (setting [2]), 1000 to 10000 nM; on human CB2 (hCB2) it was 100 to 1000 nM. The IC50 in assay [1] lay in the range of 100 to 1000 nM.

For the compound `Cc1ccc(C(=O)c2cc3cc(C)n(CCN4CCOCC4)c3s2)c(Cl)c1` [Compound 86, (2-Chloro-4-methylphenyl)(5-methyl-6-(2-morpholinoethyl)-6H-thieno[2,3-b]pyrrol-2-yl)methanone], the EC50 at human CB2 receptors was below 100 nM; on human CB1 receptors (setting [2]), 1000 to 10000 nM; at human CB2 (hCB2), below 100 nM. Further, the 50% inhibitory concentration (IC50) in assay [1] was below 100 nM.
